Measurements reported in PMC12891850 (Acta Pharmaceutica Sinica. B, 2025).

Target: T1, aldehyde oxidase 1 (AOX1) (Homo sapiens, UniProt Q06278)
T1 sequence (Q06278 1-1338): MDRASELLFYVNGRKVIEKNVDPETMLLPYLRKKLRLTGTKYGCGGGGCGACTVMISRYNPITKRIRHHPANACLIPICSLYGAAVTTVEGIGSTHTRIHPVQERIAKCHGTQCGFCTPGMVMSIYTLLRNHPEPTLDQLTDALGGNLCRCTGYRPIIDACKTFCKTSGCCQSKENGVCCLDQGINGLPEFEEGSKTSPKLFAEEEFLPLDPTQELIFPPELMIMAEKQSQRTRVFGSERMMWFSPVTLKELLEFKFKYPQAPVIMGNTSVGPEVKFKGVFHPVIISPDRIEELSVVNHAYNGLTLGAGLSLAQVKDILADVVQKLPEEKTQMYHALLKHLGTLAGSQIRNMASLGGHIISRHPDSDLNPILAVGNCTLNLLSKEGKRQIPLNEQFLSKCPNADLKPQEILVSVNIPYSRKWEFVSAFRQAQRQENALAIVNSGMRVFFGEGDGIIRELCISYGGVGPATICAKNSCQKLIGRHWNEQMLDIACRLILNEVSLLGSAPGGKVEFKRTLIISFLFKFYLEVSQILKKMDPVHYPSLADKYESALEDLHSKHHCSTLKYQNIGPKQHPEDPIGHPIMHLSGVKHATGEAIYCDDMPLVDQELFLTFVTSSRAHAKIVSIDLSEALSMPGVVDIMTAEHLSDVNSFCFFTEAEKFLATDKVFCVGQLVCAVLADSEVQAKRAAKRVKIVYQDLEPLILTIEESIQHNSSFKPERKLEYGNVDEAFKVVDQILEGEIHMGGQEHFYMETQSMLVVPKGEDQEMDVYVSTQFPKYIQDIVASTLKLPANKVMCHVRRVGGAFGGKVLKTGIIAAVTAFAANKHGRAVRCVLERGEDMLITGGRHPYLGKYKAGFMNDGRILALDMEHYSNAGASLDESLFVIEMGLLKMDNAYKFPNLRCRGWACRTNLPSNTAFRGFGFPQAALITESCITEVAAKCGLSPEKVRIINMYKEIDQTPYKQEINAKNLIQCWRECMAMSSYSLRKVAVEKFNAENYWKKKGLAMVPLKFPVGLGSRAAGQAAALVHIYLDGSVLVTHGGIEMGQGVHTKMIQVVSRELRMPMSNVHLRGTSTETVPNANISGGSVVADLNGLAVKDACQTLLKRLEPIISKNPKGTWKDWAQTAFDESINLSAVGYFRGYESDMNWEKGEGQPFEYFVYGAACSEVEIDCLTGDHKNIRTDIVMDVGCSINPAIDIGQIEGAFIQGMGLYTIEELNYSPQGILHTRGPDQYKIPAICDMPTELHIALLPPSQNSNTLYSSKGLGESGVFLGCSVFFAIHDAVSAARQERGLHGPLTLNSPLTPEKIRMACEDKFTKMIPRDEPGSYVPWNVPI
Assay: SPR
Format: binding

In the case of `CNC(=O)c1cc(Oc2ccc(NC(=O)Nc3ccc(Cl)c(C(F)(F)F)c3)c(F)c2)ccn1` [regorafenib], the Kd is reported as 42.7 µM.
